Read-outs that look alike come from different tables or passages of the source. One block for each compound: values may come before it.
Tests used:
[1] = system: peritoneal macrophages (pMΦ); assay: Phagocytosis assay with fluorescence-labeled zymosan particles in peritoneal macrophages; assay type: cell-based, mouse
Experimental: (§1) Peritoneal macrophage culture. Peritoneal macrophages were collected by peritoneal lavage with 10 ml warm PBS containing of 1 mM EDTA. Cells were incubated in DMEM supplemented with 10% FBS at 37° C. for 2 h in petri dish and washed with PBS to eliminate non-adherent cells. The adherent cells were used as peritoneal macrophages. Peritoneal macrophages were used after 3 days of culture.
Phagocytosis assay. The phagocytosis assay was modified from a previously described protocol (Sommer C, and Kress M. NeurosciLett. 2004, 361, 184-187). pHrodo® Red Zymosan Bioparticles (diameter, 3 μm, Thermo scientific, Catalog: P35364) were rinsed and reconstituted in RPMI medium. Particles were centrifuged (1 min at 100 g) onto adherent peritoneal macrophages at a ratio of 10:1 to synchronize binding and internalization. After 30 min incubation at 37° C., non-adherent beads were removed with cold PBS and cells were fixed with 2% formalin. Four optic fields were photographed with epifluorescence microscopy. Quantification of zymosan particles ingested by MΦ was conducted on at least 200 macrophages/condition/well, and triplicates were included for statistical analysis.
We investigated whether iCa^2+ increases would trigger phagocytosis of pathogens such as zymosan by macrophages. Zymosan is a well-studied pathogen and activates TLR2 to trigger inflammation and inflammatory pain in rodents after intraplantar injection. We tested phagocytosis in pMΦ using fluorescence-labeled zymosan particles.

ALX = molecular target: T1, ALX (Homo sapiens, UniProt P25090); assay: Ca2+ imaging (Fura-2AM) in HEK293 cells transfected with ALX cDNA; assay type: cell-based; conditions: HEK293 cells expressing ALX
T1 construct: host or cells: HEK293 flip-in cells
T1 sequence (P25090 1-351): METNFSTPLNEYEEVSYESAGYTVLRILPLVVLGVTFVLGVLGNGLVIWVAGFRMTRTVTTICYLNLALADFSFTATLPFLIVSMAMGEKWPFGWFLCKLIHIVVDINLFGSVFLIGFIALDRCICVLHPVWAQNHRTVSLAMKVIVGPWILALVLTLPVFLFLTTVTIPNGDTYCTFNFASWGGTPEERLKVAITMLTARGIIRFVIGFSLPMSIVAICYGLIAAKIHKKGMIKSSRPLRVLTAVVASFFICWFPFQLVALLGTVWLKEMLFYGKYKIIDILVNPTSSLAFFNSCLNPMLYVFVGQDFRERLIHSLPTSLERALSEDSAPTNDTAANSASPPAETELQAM
Text: (§2) FIG. 10A-FIG. 10C. Characterization of intracellular Ca^2+ changes in HEK293 cells expressing ChemR23, GPR32, and ALX. Ca^2+ imaging with Fura-2AM indicator showing iCa^2+ levels in HEK293 cells transfected with ChemR23 (FIG. 10A), GPR32 (FIG. 10B), and ALX (FIG. 10C) cDNAs. Note that NPD1 fails to elicit iCa^2+ increase in HEK293 cells expressing ChemR23, GPR32, and ALX. […] ATP is included as a positive control. *P<0.05, compared with baseline n=44˜97 cells from 3 cultures. All the data are expressed as mean±s.e.m.
(§3) HEK cell culture and transfection. HEK293 flip-in cell line was purchased from Duke Cell Culture Facility. Cells were cultured in high glucose (4.5 g/L) Dulbecco's Modified Eagle's Medium containing 10% (v/v) fetal bovine serum (Gibco). Transfection (2 μg cDNA) was performed with Lonza electroporation (Lonza) at 70% confluency and the transfected cells were cultured in the same growth medium for 48 h before use. The hGPR37-V5 pLenti304 plasmids were obtained from DNASU (Tempe, AZ), and hGPR32, hChemR23 and hALX pcDNA3 plasmids were provided by Dr. Serhan from Harvard Medical School, Boston.
(§4) Calcium imaging. HEK 293 cells, with or without transfection of Gpr37, GPR32, ChemR23 or ALX1 cDNA, were loaded with 5 μM Fura-2AM (Invitrogen) for 1 hour and then were resuspended in normal external buffer (140 NaCl, 5 KCl, 2 CaCl2, 2 MgCl2, 10 HEPES, in mM, titrated to pH 7.4 with NaOH) or external Ca^2+-free buffer (140 NaCl, 2 MgCl2, 5 EGTA, 10 HEPES, in mM, titrated to pH 7.4 with NaOH). Peritoneal macrophages, collected from WT and Gpr37 KO mice, were loaded with 5 μM […] (Invitrogen) for 1 hour and then were resuspended in normal external buffer. Images of the HEK 293 cells and macrophages with the excitation wavelength of 340 nm and 380 nm were captured with a cooled Digital CMOS camera (ORCA-Flash 4.0, Hamamatsu Photonics K.K, Japan). The ratio of fluorescence intensity of the two wavelengths in each experiment was analyzed using MetaFluor (Molecular Devices). The Shutter speed and wavelength was controlled by Lambda DG-4 system (Sutter instrument Co., Novato, CA). Values from each of the experiments were normalized to the baseline ratio of 340/380 nm.
Several SPM receptors have been identified such as ChemR23 for RvE1, GPR32 for RvD1, and ALX for lipoxin A. We transfected human cDNAs of ChemR23, GPR32, and ALX in HEK293 cells and checked Ca^2+ responses following the treatment of each SPM.

GPR37 [2] = molecular target: T2, GPR37 (Homo sapiens, UniProt O15354); assay: Ca2+ imaging (Fura-2AM) in HEK293 cells transfected with human GPR37 cDNA; assay type: cell-based; conditions: for effect on NPD1-induced iCa2+ increase: NPD1 30 nM, PTX 1 μg/mL 16 h before, thapsigargin 1 μM 3 min, EGTA 10 mM 3 min; for intracellular Ca2+ (iCa2+) increase: 3 min, GPR37-expressing HEK293 cells
T2 construct: host or cells: HEK293 flip-in cells
T2 sequence (O15354 27-613): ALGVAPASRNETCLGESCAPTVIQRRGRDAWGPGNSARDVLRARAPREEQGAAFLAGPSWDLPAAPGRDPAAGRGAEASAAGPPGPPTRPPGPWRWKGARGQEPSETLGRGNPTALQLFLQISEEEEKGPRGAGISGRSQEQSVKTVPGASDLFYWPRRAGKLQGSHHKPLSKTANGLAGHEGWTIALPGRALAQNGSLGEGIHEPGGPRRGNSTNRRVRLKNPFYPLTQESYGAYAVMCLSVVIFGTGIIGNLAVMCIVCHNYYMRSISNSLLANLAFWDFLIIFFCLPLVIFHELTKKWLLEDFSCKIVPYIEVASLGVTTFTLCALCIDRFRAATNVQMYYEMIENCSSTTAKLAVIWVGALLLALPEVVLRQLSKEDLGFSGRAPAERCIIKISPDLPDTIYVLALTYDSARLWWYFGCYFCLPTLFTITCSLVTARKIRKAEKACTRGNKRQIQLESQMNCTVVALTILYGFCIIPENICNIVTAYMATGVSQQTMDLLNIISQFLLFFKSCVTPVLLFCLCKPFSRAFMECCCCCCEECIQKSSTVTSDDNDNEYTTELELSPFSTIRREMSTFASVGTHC
Experimental: as §3, §4
In order to investigate how GPR37 regulates intracellular signaling, we conducted Ca^2+ imaging in HEK293 cells that overexpress GPR37. […] Thus, we hypothesized TX14 and SPM may activate the same receptors and elicit similar intracellular responses. We transfected HEK293 cells with human GPR37 cDNA, loaded these cells with Ca^2+ dye Fura-2AM, and stimulated them with TX14 and various SPMs, using ionomycin (2 μM) as a positive control for Ca^2+ influx (FIG. 2A, FIG. 2B, FIG. 2C).

GPR37 [3] = assay: Ca2+ imaging (Fluo-4AM) in peritoneal macrophages (pMΦ) from WT and Gpr37−/− mice; assay type: cell-based, mouse; conditions: GPR37-deficient pMΦ vs WT
Experimental: as §1, §4
(§5) Next, we conducted GPR37-mediated Ca^2+ imaging in native pMΦ from WT and Gpr37^−/− mice using Fluo-4AM as a Ca^2+ indicator, since this dye works better than Fura-2AM for pMΦ. […] As compared to iCa^2+ increase in GPR37-expressing HEK293 cells, NPD1 trigger a slow-onset but more persistent Ca^2+ response in pMΦ (FIG. 2B and FIG. 2G). A relatively rapid calcium response in HEK293 cells may result from over-expression of GPR37. A sustained iCa^2+ increase in pMΦ may result from the expression of transient receptor potential (TRP) ion channels in these immune cells. It is noteworthy that macrophages express TRPV2 or TRPM2, which are involved in phagocytosis during bacterial infection. […] NPD1-triggered iCa^2+ increase in pMΦ is also Gi-dependent, since PTX blocked this increase (FIG. 2H). For comparison, ATP-evoked iCa^2+ increase was not altered in GPR37-deficient pMΦ (FIG. 2H).

GPR37 [4] = molecular target: T3, GPR37 (Mus musculus, UniProt Q9QY42); assay: as above; assay type: cell-based; conditions: PTX 1 μg/mL, 16 h; pMΦ
T3 sequence (Q9QY42 27-600): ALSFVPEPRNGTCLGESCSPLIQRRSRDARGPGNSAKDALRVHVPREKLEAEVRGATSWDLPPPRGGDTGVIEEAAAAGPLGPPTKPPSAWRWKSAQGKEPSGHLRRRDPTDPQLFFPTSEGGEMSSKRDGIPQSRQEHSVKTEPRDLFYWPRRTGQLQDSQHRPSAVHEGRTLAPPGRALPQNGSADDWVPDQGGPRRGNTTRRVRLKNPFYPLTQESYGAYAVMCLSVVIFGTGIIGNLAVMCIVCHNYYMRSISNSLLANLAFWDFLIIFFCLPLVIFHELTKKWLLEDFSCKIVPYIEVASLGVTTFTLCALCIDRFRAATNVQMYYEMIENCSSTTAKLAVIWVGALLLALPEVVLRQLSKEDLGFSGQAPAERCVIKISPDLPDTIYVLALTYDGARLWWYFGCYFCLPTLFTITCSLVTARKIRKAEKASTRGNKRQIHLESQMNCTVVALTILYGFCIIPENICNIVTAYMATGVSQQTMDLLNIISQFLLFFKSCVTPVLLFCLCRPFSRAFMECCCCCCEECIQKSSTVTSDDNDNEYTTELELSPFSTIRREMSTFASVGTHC
Experimental: as §1, §4, §5

ChemR23 = molecular target: T4, ChemR23 (Homo sapiens, UniProt Q99788); assay: Ca2+ imaging (Fura-2AM) in HEK293 cells transfected with ChemR23 cDNA; assay type: cell-based; conditions: 1 μM; HEK293 cells expressing ChemR23
T4 construct: host or cells: HEK293 flip-in cells
T4 sequence (Q99788 1-373): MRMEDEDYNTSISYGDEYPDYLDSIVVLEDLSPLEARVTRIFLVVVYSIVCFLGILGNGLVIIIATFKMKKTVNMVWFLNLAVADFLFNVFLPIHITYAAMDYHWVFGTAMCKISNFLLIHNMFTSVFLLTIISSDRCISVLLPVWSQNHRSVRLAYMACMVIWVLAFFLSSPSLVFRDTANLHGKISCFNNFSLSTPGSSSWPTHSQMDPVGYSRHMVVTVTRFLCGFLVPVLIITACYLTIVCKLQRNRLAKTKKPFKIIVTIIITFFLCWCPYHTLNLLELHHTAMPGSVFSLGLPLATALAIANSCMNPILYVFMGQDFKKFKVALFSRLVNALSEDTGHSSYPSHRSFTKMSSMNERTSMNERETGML
Text: as §2, §3
as §4, with “Values from each of the experiments were normalized to the baseline ratio of 340/380 nm.” left out

GPR32 = molecular target: T5, GPR32 (Homo sapiens, UniProt O75388); assay: Ca2+ imaging (Fura-2AM) in HEK293 cells transfected with GPR32 cDNA; assay type: cell-based; conditions: 1 μM; HEK293 cells expressing GPR32
T5 construct: host or cells: HEK293 flip-in cells
T5 sequence (O75388 whole entry): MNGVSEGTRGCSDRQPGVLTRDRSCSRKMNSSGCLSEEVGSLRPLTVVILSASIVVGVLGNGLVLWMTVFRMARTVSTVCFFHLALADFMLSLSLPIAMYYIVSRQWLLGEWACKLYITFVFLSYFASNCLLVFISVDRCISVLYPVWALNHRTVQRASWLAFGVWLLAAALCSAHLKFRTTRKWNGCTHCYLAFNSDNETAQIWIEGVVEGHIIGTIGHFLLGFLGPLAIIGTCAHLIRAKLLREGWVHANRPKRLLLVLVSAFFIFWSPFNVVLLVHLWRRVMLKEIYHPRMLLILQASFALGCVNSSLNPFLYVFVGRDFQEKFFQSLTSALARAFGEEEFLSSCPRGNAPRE
Text: as §2, §3
as §4, with “Values from each of the experiments were normalized to the baseline ratio of 340/380 nm.” left out

[5] = LY294002 50 μM, U0126 10 μM, PTX 1 μg/mL, BAPTA-AM 10 μM

Compound: C[C@H](CCC(=O)O)C[C@H](C)C[C@H](C)C(=O)/C=C(\O)[C@H](C)C[C@H](C)C/C=C/[C@@H](C)[C@@H](O)[C@@H](C)[C@@H](O)C[C@@H]1CC[C@@](C)([C@H]2CC[C@@](C)([C@@H](C)O)O2)O1 [ionomycin]
- phagocytosis ([1]; 2 μM, both WT and Gpr37 KO mice): markedly increased phagocytosis

- Ca2+ response (ALX; 100 nM): fail to evoke Ca^2+ responses
Compound: Annexin 1: SPM ligand for ALX, from Anaspec (AMVSEFLKQAWFIENEEQEYVQTVK)

Compound: O=C(O)CN(CCOCCOCCN(CC(=O)O)CC(=O)O)CC(=O)O [EGTA]
- effect on NPD1-induced iCa2+ increase (GPR37 [2]): inhibited

Compound: N#CC(=C(/N)Sc1ccccc1N)/C(C#N)=C(\N)Sc1ccccc1N [U0126]
- effect on NPD1-induced phagocytosis [1]: inhibited

Compound: Nc1ncnc2c1ncn2[C@@H]1O[C@H](COP(=O)(O)OP(=O)(O)OP(=O)(O)O)[C@@H](O)[C@H]1O [ATP]
- ATP-evoked iCa2+ increase (GPR37 [3]): not altered

- intracellular Ca2+ (iCa2+) increase (GPR37 [2]; 100 nM): failed to increase iCa^2+
Compound: CC/C=C\C[C@H](O)[C@H](O)/C=C/C=C/C=C\C=C\[C@@H](O)C/C=C\CCC(=O)O [RvD2]

Compound: C/C=C(/C)C(=O)O[C@H]1C(C)=C2[C@H]([C@@H]1OC(=O)CCCCCCC)[C@@](C)(OC(C)=O)C[C@H](OC(=O)CCC)[C@@]1(O)[C@H]2OC(=O)[C@@]1(C)O [thapsigargin]
- effect on NPD1-induced iCa2+ increase (GPR37 [2]): inhibited

- iCa2+ increase / Ca2+ response (ALX): failed to evoke Ca^2+ responses
- intracellular Ca2+ (iCa2+) increase (GPR37 [2]; 100 nM): failed to increase iCa^2+
Compound: CCCCC[C@H](O)/C=C/C=C\C=C\C=C\[C@@H](O)[C@@H](O)CCCC(=O)O [lipoxin A1]

Compound: pertussis toxin
- effect on NPD1-triggered iCa2+ increase (GPR37 [4]): blocked
- effect on NPD1-induced iCa2+ increase (GPR37 [2]): completely blocked
- effect on NPD1-induced phagocytosis [1, 5]: inhibited

- Ca2+ response (ChemR23): fail to evoke Ca^2+ responses
- Ca2+ response (ALX; 1 μM): fail to evoke Ca^2+ responses
- Ca2+ response (GPR32): fail to evoke Ca^2+ responses
Compound: CC/C=C\C/C=C\C/C=C\C/C=C\C/C=C\CCCC(=O)O [EPA]
- intracellular Ca2+ (iCa2+) increase (GPR37 [2]; 1 μM): Neither did the precursors of these SPMs (DHA and EPA), at a much higher concentration (1 μM), evoked calcium responses

- effect on NPD1-induced iCa2+ increase (GPR37 [2]): inhibited
Compound: CC(=O)OCOC(=O)CN(CC(=O)OCOC(C)=O)c1ccccc1OCCOc1ccccc1N(CC(=O)OCOC(C)=O)CC(=O)OCOC(C)=O [BAPTA-AM]
- effect on baseline phagocytosis ([1]; BAPTA-AM 10 μM): blocked
- effect on NPD1-induced phagocytosis [1, 5]: blocked
